Source: paper PMC9227536, “Prediction of Pharmacokinetics of IDP-73152 in Humans Using Physiologically-Based Pharmacokinetics” (Pharmaceutics, 2022)
Like-named read-outs stand apart in the source and are kept apart here.

Tests used:
[1] = PK study in rats (intravenous and oral); type: in vivo, Male Sprague Dawley rats; details: for Vd / clearance: iv, 10 mg/kg; for Vd: read-out: Vss; for clearance: read-out: CLp (converted); for Tmax: 20 mg/kg
Experimental: The in vivo experimental protocol was approved by the Institutional Animal Care and Use Committee of Research Laboratory at Ildong pharmaceutical Co., Ltd. (Ref. No.: IDL-PDF-001 and 09005-11004). Animals were acclimatized to the laboratory conditions for at least 1 week before the experiments and were kept in the standardized conditions (20–25 °C, 55 ± 5% humidity, and a 12 h light/dark cycle). The animals fasted overnight prior to drug administration, and food was resupplied 4 h post-dose. Male Sprague Dawley rats (Orient Bio Inc., Seongnam, Korea), weighing 194.7 g to 205.4 g, were used in this study. IDP-73152 was administered to rats at a single dose of 2.5, 5, or 10 mg/kg via tail vein injection (the injection volume fixed at 2 mL/kg in saline). […] Blood samples (100 μL) were collected from the jugular vein at 0.167, 0.33, 0.5, 1, 2, 4, and 8 h after the administration. Plasma was separated/collected by centrifugation of the blood samples for 5 min at 10,000× g/4 °C and stored at −80 °C until analysis. When necessary, the biliary and renal excretion of IDP-73152 were studied in bile duct-cannulated rats after the intravenous injection (5 mg/kg) to investigate its route(s) of excretion in rats. Bile and urine samples were collected up to 8 h (i.e., approximately 5 times of the terminal phase half-life) after the administration and the samples were stored at −80 °C until the analysis. The cumulative excretion of the bile and the urine to infinite time was determined by assuming that the excretion was practically completed by the last collection time. When necessary for a model independent PK analysis, a standard moment analysis was carried out with WinNonlin software using either representative (for the study with mice) or individual (for the study with rats, dogs, and humans) concentration–time profile(s). For the calculation of PBPK models, Berkeley Madonna 8.3.18 (Albany, CA, USA) was used with the fourth-order Runge–Kutta method for numerical integration.

[2] = Caco-2 cell bidirectional permeability; type: in vitro ADME; details: human; for recovery at 2 h, 10 µM: Caco-2, Caco-2
Experimental: In this study, bidirectional permeability assays were conducted as described in the literature, with minor modifications. Briefly, Caco-2 cells (KCLB, Seoul, Korea) were seeded on Transwell® inserts (Corning Inc., Glendale, AZ, USA) and grown in a humidified atmosphere of 5% CO2 at 37 °C to form a confluent monolayer over 3 weeks. On day 21, after seeding, the integrity of the cell monolayer was assessed by measuring the transepithelial electrical resistance using an epithelial voltohmmeter (EVOM and EVOMX, World Precision Instruments, Sarasota, FL, USA). The medium in donor and receiver compartments was then replaced with 5 mM of HEPES in HBSS, and preincubated for 10 min at 37 °C. The permeability study was initiated by adding IDP-73152 (in a 10 µM final concentration in the chambers) to an apical insert (for apical-to-basolateral (A-to-B) transport) or a basolateral chamber (for basolateral-to-apical (B-to-A) transport). Samples were collected from both compartments at 30 min intervals up to 2 h. Throughout the study, the temperature and atmosphere of the compartments were maintained at 37 °C and 5% CO2. The samples were stored at −80 °C until analysis and the concentration of the compound was determined by LC-MS/MS assay for IDP-73152 [10]. The apparent permeability coefficient (Papp, in cm/s) was calculated using the following equation:(1) Papp=(dQ/dt/C0×A) where dQ/dt is the rate of IDP-73152 transport across monolayers (nmol/s), C0 is the initial concentration of IDP-73152 (10 μM), and A is the surface area of the insert (1.12 cm^2). The efflux ratio of IDP-73152 in the Caco-2 cell system was calculated by the ratio of Papp from B-to-A transport (Papp,B-to-A) to Papp from A-to-B transport (Papp,A-to-B).

[3] = male, Sprague Dawley, rat, plasma, intravenous, across doses of 2.5, 5, and 10 mg/kg

## CC(C)(C)[C@H](NC(=O)[C@H](CC1CCCC1)CN(O)C=O)C(=O)N1CCC(NCc2cc(F)c(F)cc2F)CC1 [IDP-73152]
[1]; male, Sprague Dawley, rat, plasma, intravenous 2.5 mg/kg, read-out: Observed AUCinf
  AUC(0-inf): 1320 ± 130 ng·h/mL
[1]; male, Sprague Dawley, rat, plasma, intravenous 5 mg/kg, read-out: Observed AUCinf
  AUC(0-inf): 3270 ± 1820 ng·h/mL
[1]; male, Sprague Dawley, rat, plasma, intravenous 10 mg/kg, read-out: AUCinf
  AUC(0-inf): 5030 ± 380 ng·h/mL
[1]; male, Sprague Dawley, rat, plasma, intravenous 10 mg/kg, read-out: t1/2 (converted)
  half-life: 1.43 ± 0.11 h
[1]; male, Sprague Dawley, rat, plasma, intravenous 10 mg/kg, moment analysis
  Vd: 2.54 ± 0.26 L/kg
[1]; male, Sprague Dawley, rat, plasma, intravenous 10 mg/kg
  clearance: ~33.3 mL/min/kg
[1]; [3]
  clearance: 30.8 to 33.3 mL/min/kg
  Vd: 2.45 to 2.78 L/kg
[1]; male, Sprague Dawley, rat, plasma, oral 20 mg/kg
  Cmax: 1650 ± 440 ng/mL
[1]; male, Sprague Dawley, rat, plasma, oral 20 mg/kg vs intravenous 10 mg/kg, read-out: F (bioavailability)
  bioavailability: 55.3%
[1]; male, Sprague Dawley, rat, plasma, oral 20 mg/kg, read-out: AUCinf
  AUC(0-inf): 5570 ± 1590 ng·h/mL
[1]; male, Sprague Dawley, rat, plasma, oral 20 mg/kg, read-out: t1/2 (terminal phase half-life) (converted)
  half-life: 2.97 ± 1.4 h
[1]; male, Sprague Dawley, rat, plasma, po, oral 20 mg/kg, read-out: Tmax
  Tmax: 0.667 h
[1]; oral 20 mg/kg
  Tmax: 0.638 ± 0.29 h
[2]; read-out: recovery, A to B transport
  recovery at 2 h, 10 µM: 96.6 ± 5.1%
[2]; read-out: recovery, B to A transport
  recovery at 2 h, 10 µM: 93.4 ± 3%
[2]; Caco-2, Papp,B-to-A / Papp,A-to-B
  efflux ratio at 2 h, 10 µM: < 2
[2]; Caco-2 monolayer, 10 µM, apical-to-basolateral
  Papp A→B at 2 h, 10 µM: 31.2 ± 1.93 ×10⁻⁶ cm/s
[2]; Caco-2 monolayer, 10 µM, basolateral-to-apical
  Papp B→A at 2 h, 10 µM: 49.5 ± 3.5 ×10⁻⁶ cm/s
